From US8497278B2, “Imidazo[1,2-a]pyridine compounds” (priority 2008, dated 2013)

Legend:
[1] = tested on: central benzodiazepine receptors; assay: Central benzodiazepine receptor binding (test of Speth et al.); details: 1000 nM of the compound
In short: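 Radioligand binding by the Speth et al. method. Specific binding is total minus nonspecific binding, the latter measured with excess unlabelled ligand. Compounds screened at 1.0E-09, 1.0E-07 and 1.0E-05 M in single determination; values given as percent inhibition at 1000 nM compound.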

[2] = target: T1, α1 subtype containing GABA-A receptors (Homo sapiens, UniProt P14867+P18507); assay: Two-electrode voltage clamp electrophysiology in Xenopus oocytes, potentiation of GABA EC20 response, α1; format: cell-based; details: 100 nM compound; for activation at 0.1 µM: read-out: Percentage of potentiation alpha1
T1 construct: expressed in transfected cells; host or cells: Xenopus laevis oocytes, cRNA injected
In short: (§1)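 Compounds are tested at 100 nM, one per oocyte, against an EC20 GABA (60 μM) response in human α1-, α2-, α3- or α5-β3-γ2L receptors clamped at −80 mV. Oocytes showing rapid desensitization or weak chlordiazepoxide (1 μM) potentiation are excluded.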

[3] = target: T2, α2 subtype containing GABA-A receptors (Homo sapiens, UniProt P18507+P47869); assay: Two-electrode voltage clamp electrophysiology in Xenopus oocytes, potentiation of GABA EC20 response, α2; format: cell-based; details: 100 nM compound; for activation at 0.1 µM: read-out: Percentage of potentiation alpha2
T2 construct: expressed in transfected cells; host or cells: Xenopus laevis oocytes, cRNA injected
In short: as §1

T2 sequence (P47869 29-451): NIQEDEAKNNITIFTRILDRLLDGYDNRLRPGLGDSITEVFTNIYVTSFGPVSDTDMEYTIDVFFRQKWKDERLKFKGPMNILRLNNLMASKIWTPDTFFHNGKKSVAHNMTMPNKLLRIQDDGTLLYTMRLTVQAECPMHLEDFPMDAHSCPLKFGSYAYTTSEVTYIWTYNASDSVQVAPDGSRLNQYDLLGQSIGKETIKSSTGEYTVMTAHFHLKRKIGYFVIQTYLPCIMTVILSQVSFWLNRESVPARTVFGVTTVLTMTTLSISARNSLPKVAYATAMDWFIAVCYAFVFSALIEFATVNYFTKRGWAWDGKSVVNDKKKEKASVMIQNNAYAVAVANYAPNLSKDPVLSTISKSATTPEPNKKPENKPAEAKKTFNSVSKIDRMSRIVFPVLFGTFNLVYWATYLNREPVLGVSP
T2 sequence (P28472 26-473 partner): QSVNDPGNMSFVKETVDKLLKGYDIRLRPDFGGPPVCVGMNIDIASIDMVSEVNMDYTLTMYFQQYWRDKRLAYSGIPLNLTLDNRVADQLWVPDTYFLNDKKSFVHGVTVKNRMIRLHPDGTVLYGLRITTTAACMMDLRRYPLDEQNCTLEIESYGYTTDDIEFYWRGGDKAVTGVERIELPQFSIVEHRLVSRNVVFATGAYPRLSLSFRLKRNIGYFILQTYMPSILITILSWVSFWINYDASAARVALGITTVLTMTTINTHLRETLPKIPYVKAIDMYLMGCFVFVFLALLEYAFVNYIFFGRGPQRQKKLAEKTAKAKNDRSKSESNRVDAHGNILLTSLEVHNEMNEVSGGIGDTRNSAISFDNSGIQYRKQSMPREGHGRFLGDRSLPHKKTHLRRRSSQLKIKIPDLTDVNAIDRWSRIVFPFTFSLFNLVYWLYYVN
T2 sequence (P18507 40-475): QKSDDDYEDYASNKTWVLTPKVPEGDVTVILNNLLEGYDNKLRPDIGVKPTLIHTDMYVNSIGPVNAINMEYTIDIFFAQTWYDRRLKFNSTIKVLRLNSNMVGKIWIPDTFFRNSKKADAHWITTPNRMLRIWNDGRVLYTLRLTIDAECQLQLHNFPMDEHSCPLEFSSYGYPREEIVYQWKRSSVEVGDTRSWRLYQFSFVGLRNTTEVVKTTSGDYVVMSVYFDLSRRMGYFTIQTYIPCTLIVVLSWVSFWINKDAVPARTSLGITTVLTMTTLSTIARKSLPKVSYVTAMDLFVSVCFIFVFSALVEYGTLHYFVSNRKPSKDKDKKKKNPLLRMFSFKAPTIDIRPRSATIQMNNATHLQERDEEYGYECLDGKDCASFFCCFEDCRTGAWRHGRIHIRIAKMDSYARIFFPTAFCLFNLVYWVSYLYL
T1 sequence (P14867 28-456): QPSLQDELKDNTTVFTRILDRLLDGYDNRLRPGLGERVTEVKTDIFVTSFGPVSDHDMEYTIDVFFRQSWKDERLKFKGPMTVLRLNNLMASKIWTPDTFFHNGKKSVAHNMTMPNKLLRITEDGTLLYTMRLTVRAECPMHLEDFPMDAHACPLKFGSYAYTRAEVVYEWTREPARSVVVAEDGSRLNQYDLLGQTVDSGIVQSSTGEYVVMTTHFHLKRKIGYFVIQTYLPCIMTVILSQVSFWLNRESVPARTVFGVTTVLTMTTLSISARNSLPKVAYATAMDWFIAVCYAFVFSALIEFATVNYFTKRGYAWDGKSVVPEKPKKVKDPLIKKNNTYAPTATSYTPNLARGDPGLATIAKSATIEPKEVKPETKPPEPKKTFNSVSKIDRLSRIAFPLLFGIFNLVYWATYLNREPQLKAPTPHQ
T1 sequence (P28472 26-473 partner): as the sequence (P28472 26-473 partner) above
T1 sequence (P18507 40-475): as the sequence (P18507 40-475) above

Row | SMILES | % Inhibition at 1000 nM for CBZD [1] | Percentage of potentiation alpha1 [2] | Percentage of potentiation alpha2 [3] | activation at 0.1 µM [2] [%] | activation at 0.1 µM [3] [%]
1 | CN(C)CCNC(=O)c1nccn1Cc1c(-c2ccc(Cl)cc2)nc2ccccn12 [Compound 78, 1-((2-(4-chlorophenyl)H-imidazo[1,2-a]pyridin-3-yl)methyl)-N-(2-(dimethylamino)ethyl)-1H-imidazole-2-carboxamide] | ++ (percentage of inhibition of central BZD site binding is greater than 80% in the presence of 1000 nM of the compound) | + (percentage of potentiation is greater than or equal to 10% but less than 50% in the presence of 100 nM of the compound) | + (percentage of potentiation is greater than or equal to 10% but less than 50% in the presence of 100 nM of the compound) |  | 
2 | CNC(=O)c1ncnn1Cc1c(-c2ccc(Cl)cc2)nc2ccc(Cl)cn12 [Compound 81, 2-[6-Chloro-2-(4-chloro-phenyl)-imidazo[1,2-a]pyridin-3-ylmethyl]-2H-[1,2,4]triazole-3-carboxylic acid methylamide] | ++ (percentage of inhibition of central BZD site binding is greater than 80% in the presence of 1000 nM of the compound) |  |  | 10 to 50 | 10 to 50
3 | CNC(=O)c1nccn1Cc1c(-c2ccc(Cl)cc2)nc2cccnn12 [Compound 88, 1-((2-(4-chlorophenyl)imidazo[1,2-b]pyridazin-3-yl)methyl)-N-methyl-1H-imidazole-2-carboxamide] | ++ (percentage of inhibition of central BZD site binding is greater than 80% in the presence of 1000 nM of the compound) |  |  | -10 to 10 | 10 to 50
4 | CNC(=O)c1ncnn1Cc1c(-c2ccc(Cl)cc2)nc2cccnn12 [Compound 90, 1-((2-(4-chlorophenyl)imidazo[1,2-b]pyridazin-3-yl)methyl)-N-methyl-1H-1,2,4-triazole-5-carboxamide] | ++ (percentage of inhibition of central BZD site binding is greater than 80% in the presence of 1000 nM of the compound) |  |  | 10 to 50 | 10 to 50
5 | O=C1CCN1Cc1c(-c2ccccc2)nc2ccc(Cl)cn12 [Compound 115, 1-(6-Chloro-2-phenyl-imidazo[1,2-a]pyridin-3-ylmethyl)-azetidin-2-one] | ++ (percentage of inhibition of central BZD site binding is greater than 80% in the presence of 1000 nM of the compound) |  |  | 10 to 50 | 10 to 50
6 | O=c1c2ccccc2[nH]n1Cc1c(-c2ccc(Cl)cc2)nc2ccccn12 [Compound 118, 2-((2-(4-chlorophenyl)imidazo[1,2-a]pyridin-3-yl)methyl)-1H-indazol-3(2H)-one] | ++ (percentage of inhibition of central BZD site binding is greater than 80% in the presence of 1000 nM of the compound) |  |  | 10 to 50 | ≥ 50
7 | Cc1cccc(=O)n1Cc1c(-c2ccc(Cl)cc2)nc2ccc(F)cn12 [Compound 120, 1-((2-(4-chlorophenyl)-6-fluoroimidazo[1,2-a]pyridin-3-yl)methyl)-6-methylpyridin-2(1H)-one] | ++ (percentage of inhibition of central BZD site binding is greater than 80% in the presence of 1000 nM of the compound) |  |  | ≥ 50 | ≥ 50
8 | Cc1cccn(Cc2c(-c3ccc(Cl)cc3)nc3ccc(F)cn23)c1=O [Compound 121, 1-((2-(4-chlorophenyl)-6-fluoroimidazo[1,2-a]pyridin-3-yl)methyl)-3-methylpyridin-2(1H)-one] | ++ (percentage of inhibition of central BZD site binding is greater than 80% in the presence of 1000 nM of the compound) |  |  | ≥ 50 | ≥ 50
9 | O=c1ccn(Cc2c(-c3ccc(Cl)cc3)nc3ccccn23)c(=O)[nH]1 [Compound 123, 1-((2-(4-chlorophenyl)imidazo[1,2-a]pyridin-3-yl)methyl)pyrimidine-2,4(1H,3H)-dione] | ++ (percentage of inhibition of central BZD site binding is greater than 80% in the presence of 1000 nM of the compound) |  |  | 10 to 50 | 10 to 50
10 | Cn1c(=O)ccn(Cc2c(-c3ccc(Cl)cc3)nc3ccccn23)c1=O [Compound 125, 1-((2-(4-chlorophenyl)imidazo[1,2-a]pyridin-3-yl)methyl)-3-methylpyrimidine-2,4(1H,3H)-dione] | ++ (percentage of inhibition of central BZD site binding is greater than 80% in the presence of 1000 nM of the compound) |  |  | -10 to 10 | 10 to 50
11 | O=c1[nH]c(=O)n(Cc2c(-c3ccc(Cl)cc3)nc3ccccn23)cc1F [Compound 127, 1-((2-(4-chlorophenyl)imidazo[1,2-a]pyridin-3-yl)methyl)-5-fluoropyrimidine-2,4(1H,3H)-dione] | + (percentage of inhibition of central BZD site binding is greater than 50% but less than 80% in the presence of 1000 nM of the compound) |  |  | -10 to 10 | 10 to 50
12 | O=c1nc(N2CCCC2)ccn1Cc1c(-c2ccc(Cl)cc2)nc2ccccn12 [Compound 136, 1-((2-(4-chlorophenyl)imidazo[1,2-a]pyridin-3-yl)methyl)-4-(pyrrolidin-1-yl)pyrimidin-2(1H)-one] | ++ (percentage of inhibition of central BZD site binding is greater than 80% in the presence of 1000 nM of the compound) |  |  | 10 to 50 | ≥ 50
13 | CCOc1ccn(Cc2c(-c3ccc(Cl)cc3)nc3ccccn23)c(=O)n1 [Compound 137, 1-((2-(4-chlorophenyl)imidazo[1,2-a]pyridin-3-yl)methyl)-4-ethoxypyrimidin-2(1H)-one] | ++ (percentage of inhibition of central BZD site binding is greater than 80% in the presence of 1000 nM of the compound) |  |  | 10 to 50 | 10 to 50
14 | O=c1nc(-n2cncn2)ccn1Cc1c(-c2ccc(Cl)cc2)nc2ccccn12 [Compound 138, 1-((2-(4-chlorophenyl)imidazo[1,2-a]pyridin-3-yl)methyl)-4-(1H-1,2,4-triazol-1-yl)pyrimidin-2(1H)-one] | ++ (percentage of inhibition of central BZD site binding is greater than 80% in the presence of 1000 nM of the compound) |  |  | 10 to 50 | 10 to 50
15 | Cc1ccc(-c2nc3ccc(C)cn3c2CNc2nccs2)cc1 [Compound 150, N-((6-methyl-2-p-tolylH-imidazo[1,2-a]pyridin-3-yl)methyl)thiazole-2-amine] | ++ (percentage of inhibition of central BZD site binding is greater than 80% in the presence of 1000 nM of the compound) | 0 (percentage of potentiation is between about 10% to about −10%) | + (percentage of potentiation is greater than or equal to 10% but less than 50% in the presence of 100 nM of the compound) |  | 
16 | Cc1cc(Cl)nc(NCc2c(-c3ccc(Cl)cc3)nc3ccccn23)n1 [Compound 159, 4-chloro-N-((2-(4-chlorophenyl)imidazo[1,2-a]pyridin-3-yl)methyl)-6-methylpyrimidin-2-amine] | ++ (percentage of inhibition of central BZD site binding is greater than 80% in the presence of 1000 nM of the compound) |  |  | 10 to 50 | 10 to 50
